Laboratory results: patent publication EP4706685A1, “PHARMACEUTICAL FORMULATION COMPRISING LANOSTEROL, DERIVATIVE THEREOF, AND CYCLODEXTRIN” (CARBOEXPERT Inc., priority 2023, dated 2024)

Experiments:
[1] = Stability in solution (visual observation of precipitation with auxiliary agent); format: physicochemical; settings: precipitation observed visually after 24 hours at room temperature
Experimental: Specifically, unenclosed inotodiol or the inotodiol/CD inclusion complex was mixed with a prepared auxiliary agent. The auxiliary agent was prepared at a concentration of 100 to 15,000 ppm based on the weight of inotodiol, and then treated in a sonic bath at 50 °C for 30 minutes. Afterwards, the stability was determined by visually observing whether precipitation occurred after leaving the mixture at room temperature for 24 hours.

[2] = tested on: mouse-derived macrophage cell line (Raw264.7); test: Anti-inflammatory effect against LPS in macrophage cell line, cytokine mRNA by RT-PCR; format: cell-based; settings: treated at 5 ug/ml; LPS 0.1 µg/ml, 4 hours
Experimental: Specifically, Raw264.7 was seeded into a […] at a density of 0.8 X 10^6 cells/well and cultured overnight. Then, the cells were pre-treated with inotodiol and the inotodiol/CD inclusion complex each at different concentrations for 2 hours. The cells were treated with lipopolysaccharide (LPS) at a concentration of 0.1 µg/ml and cultured for 4 hours to induce inflammation, after which RNA was extracted. Then, the mRNA expression of IL-6, IL-1β, and TNF-α was confirmed by a reverse transcription polymerase chain reaction (RT-PCR) method, and the results are shown in FIG. 6.

Structure (SMILES): CC(C)=CC[C@@H](O)[C@@H](C)[C@H]1CC[C@@]2(C)C3=C(CC[C@]12C)[C@@]1(C)CC[C@H](O)C(C)(C)[C@@H]1CC3 [inotodiol, (3S,5R,10S,13R,14R,17R)-17-[(2S,3R)-3-hydroxy-6-methylhept-5-en-2-yl]-4,4,10,13,14-pentamethyl-2,3,5,6,7,11,12,15,16,17-decahydro-1H-cyclopenta[a]phenanthren-3-ol]
- ppm of inotodiol in solution ([1]; Kolliphor (5 %)): 500 < ppm
- ppm of inotodiol in solution ([1]; Tween 80 (1 %)): 100 < ppm
- mRNA expression level of IL-6 [2]: significantly reduced
- mRNA expression level of TNF-α [2]: significantly reduced
